Our source for the IC50 values is patent US11396517B1, “Exo-aza spiro inhibitors of menin-MLL interaction” (Janssen Pharmaceutica NV, priority 2017, dated 2022).

One experiment addresses T1, menin (Homo sapiens, UniProt O00255, T541A).
T1 construct: Menin (a.a. 1-610-6×his tag)
T1 sequence (O00255 with tags, fused parts or gaps T541A): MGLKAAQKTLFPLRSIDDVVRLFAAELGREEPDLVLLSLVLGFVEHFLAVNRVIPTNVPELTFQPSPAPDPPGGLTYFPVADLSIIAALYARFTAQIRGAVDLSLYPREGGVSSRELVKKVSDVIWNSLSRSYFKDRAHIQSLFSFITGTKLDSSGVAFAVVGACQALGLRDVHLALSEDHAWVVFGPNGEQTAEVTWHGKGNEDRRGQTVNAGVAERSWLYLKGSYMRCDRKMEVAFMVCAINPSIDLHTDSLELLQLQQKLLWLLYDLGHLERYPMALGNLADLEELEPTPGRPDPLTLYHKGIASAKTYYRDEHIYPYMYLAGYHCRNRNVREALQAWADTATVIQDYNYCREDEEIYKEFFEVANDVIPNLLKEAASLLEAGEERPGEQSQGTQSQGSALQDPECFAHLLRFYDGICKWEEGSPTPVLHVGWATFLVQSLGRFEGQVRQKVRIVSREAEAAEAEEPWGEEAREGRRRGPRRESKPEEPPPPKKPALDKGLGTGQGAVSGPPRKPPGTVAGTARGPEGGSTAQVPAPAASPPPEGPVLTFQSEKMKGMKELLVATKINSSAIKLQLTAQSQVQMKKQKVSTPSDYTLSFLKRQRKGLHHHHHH
The experiment can be described thus: Menin/MLL homogenous time-resolved fluorescence (HTRF) assay. It counts as binding. The conditions noted are these: location 2; read-out: (2) location 2 Menin HTRF assay (IC50 (nM)). The essentials: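 Terbium-labeled menin (aa 1-610, His-tagged; […]) preincubated 5 min with compound, then 75 nM FITC-MBM1 peptide for 15 min, ambient, Tris pH 7.5, 0.5% DMSO. HTRF 520/490 ratio; 11-point 3-fold titration; IC50 from % inhibition fit.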

The test system of another experiment is MOLM14. The experiment can be described thus: Proliferation assay B (spheroid assay) MOLM14. It counts as cell-based, human. To be noted: MOLM14 cells, confluence at day 8, absolute IC50, read-out: (3b) Spheroid assay MOLM14 (IC50(μM)) Assay B. On the procedure: 3b) Proliferation Assay B
The anti-proliferative effect of menin/MLL protein/protein interaction inhibitor test compounds was assessed in human leukemia cell lines. The cell lines MV-4-11 and MOLM14 harbor MILL translocations and express the MILL fusion proteins MLL-AF4 and MLL-AF9, respectively, as well as the wildtype protein from the second allele. […] K562 was used as a control cell line containing two MLL wildtype alleles in order to exclude compounds that display general cytotoxic effects.
MV-4-11 and MOLM14 were cultured in RPMI-1640 (Sigma Aldrich) supplemented with 10% fetal bovine serum (HyClone), 2 mM L-glutamine (Sigma Aldrich) and 50 μg/ml gentamycin (Gibco). K562 were propagated in RPMI-1640 (Sigma Aldrich) supplemented with 20% fetal bovine serum (HyClone), 2 mM L-glutamine (Sigma Aldrich) and 50 μg/ml gentamycin (Gibco).
In order to assess the anti-proliferative effects, 1,500 MV-4-11, 300 MOLM14 cells or 750 K562 cells were seeded in 200 μl media per well in 96-well round bottom, ultra-low attachment plates (Costar, catalogue number 7007). Cell seeding numbers were chosen based on growth curves to ensure linear growth throughout the experiment. Test compounds were added at different concentrations and the DMSO content was normalized to 0.3%. Cells were incubated for 8 d at 37° C. and 5% CO2. Spheroid like growth was measured in real-time by live-cell imaging (IncuCyteZOOM, Essenbio, 4× objective) acquiring images at day 8. Confluence (%) as a measure of spheroid size was determined using an integrated analysis tool.
In order to determine the effect of the test compounds over time, the confluence in each well as a measure of spheroid size, was calculated. Confluence […] at the beginning of the experiment (t=0) was used as baseline for the calculation.
Absolute IC50 values were calculated as percent change in confluence as follows:
LC=Low Control: cells treated with 1 μM of the cytotoxic agent staurosporin
HC=High Control: Mean confluence (%) (DMSO treated cells) % Effect=100−(100*(Sample−LC)/(HC−LC))
To determine the IC50 a curve is fitted to the plot of % Effect vs Log 10 compound concentration using a sigmoidal fit with a variable slope and fixing the maximum to 100% and the minimum to 0%.

Read-outs that look alike come from different tables or passages of the source. Bounds are passed on as bounds.

On to `N#Cc1ccc(NC2CC3(CCN(c4ncnc5sc(CC(F)(F)F)cc45)C3)C2)cn1` (mixture of isomers) [Compound 176], for which the half-maximal inhibitory concentration (IC50) on menin is 18.7 nM; in the experiment on MOLM14 (Homo sapiens, MOLM-14, 192 h), 1.55 µM.
The like results for `CN(C)CCN(C)C(=O)c1ccc(NC2CC3(CCN(c4ncnc5sc(CC(F)(F)F)cc45)C3)C2)cc1` (mixture of isomers) [Compound 180] were, in that order, 43.4 nM and above 3.75 µM.
Consider `CC(NC(=O)c1ccc(NC2CC3(CCN(c4ncnc5sc(CC(F)(F)F)cc45)C3)C2)cc1)C1CCN(S(C)(=O)=O)CC1` (mixture of isomers) [Compound 191], for which the IC50 at menin was determined as 7.9 nM; in the experiment with MOLM14 (Homo sapiens, MOLM-14, 192 h) it was 1.22 µM.
As to `CC(CN1CCN(S(C)(=O)=O)CC1)NC(=O)c1ccc(NC2CC3(CCN(c4ncnc5sc(CC(F)(F)F)cc45)C3)C2)cc1` (mixture of isomers) [Compound 192], the IC50 on menin came out at 13.1 nM; in the experiment with MOLM14 (Homo sapiens, MOLM-14, 192 h) it was 1 µM.
Turning to `CC(CN(C)C)NC(=O)c1ccc(NC2CC3(CCN(c4ncnc5sc(CC(F)(F)F)cc45)C3)C2)cc1` (mixture of isomers) [Compound 193], the IC50 on menin stood at 4.2 nM; in the experiment with MOLM14 (Homo sapiens, MOLM-14, 192 h), 0.46 µM.
The corresponding values for `O=c1[nH]c2ccc(NCC3CC4(CCN(c5ncnc6sc(CC(F)(F)F)cc56)C4)C3)cc2[nH]1` (mixture of isomers) [Compound 198] are 141 nM and above 3.75 µM.
For the molecule `CNC(=O)c1ccc(NC2CC3(CCN(c4ncnc5sc(CC(F)(F)F)cc45)C3)C2)cc1Cl` (mixture of isomers) [Compound 214], the IC50 at menin is 9.4 nM; with MOLM14 (Homo sapiens, MOLM-14, 192 h) it was above 3.75 µM.
For the molecule `CS(=O)(=O)N1CCN(CCn2c(=O)[nH]c3ccc(NC4CC5(CCN(c6ncnc7sc(CC(F)(F)F)cc67)C5)C4)cc32)CC1` (mixture of isomers) [Compound 221], the IC50 was 4000 nM on menin and above 3.75 µM in the experiment with MOLM14 (Homo sapiens, MOLM-14, 192 h).
As for `CS(=O)(=O)N1CCN(CCn2c(=O)[nH]c3cc(NC4CC5(CCN(c6ncnc7sc(CC(F)(F)F)cc67)C5)C4)ccc32)CC1` (mixture of isomers) [Compound 222], the IC50 on menin is 418 nM; in the experiment with MOLM14 (Homo sapiens, MOLM-14, 192 h), above 3.75 µM.
The like results for `CNC(=O)c1ccc(NC2CC3(CCN(c4ncnc5sc(CC(F)(F)F)cc45)C3)C2)cc1CCCN(C)C` (mixture of isomers) [Compound 236] were, in that order, 80 nM and above 3.75 µM.
The corresponding values for `CN1CCC(COc2cc(NC3CC4(CCN(c5ncnc6sc(CC(F)(F)F)cc56)C4)C3)ccc2C#N)CC1` (mixture of isomers) [Compound 241] are 114 nM and 2.64 µM.
The corresponding values for `CNc1nc(N2CCC3(CC(Nc4ccc5c(c4)oc(=O)n5CCN4CCN(S(C)(=O)=O)CC4)C3)C2)c2cc(CC(F)(F)F)sc2n1` (mixture of isomers) [Compound 250] are 146 nM and above 3.75 µM.
`CNC(=O)c1cnc(NC2CC3(CCN(c4ncnc5sc(CC(F)(F)F)cc45)C3)C2)nc1` (mixture of isomers) [Compound 257]: the half-maximal inhibitory concentration (IC50) at menin is 10.6 nM; in the experiment with MOLM14 (Homo sapiens, MOLM-14, 192 h), above 3.75 µM.
On to `CNC(=O)c1ccc(NC2CC3(CCN(c4ncnc5sc(CC(F)(F)F)cc45)C3)C2)cc1` (mixture of isomers) [Compound 329], for which the results for the IC50 at menin and in the experiment on MOLM14 were 2 nM and 2.54 µM, respectively.
On to `CS(=O)(=O)N1CCC(C#N)(c2ccc(NC3CC4(CCN(c5ncnc6sc(CC(F)(F)F)cc56)C4)C3)cc2)CC1` (mixture of isomers) [Compound 340], for which the IC50 was determined as 7.1 nM at menin and 2.47 µM in the experiment with MOLM14 (Homo sapiens, MOLM-14, 192 h).
The like results for `CS(=O)(=O)c1ccc(NC2CC3(CCN(c4ncnc5sc(CC(F)(F)F)cc45)C3)C2)cc1` (mixture of isomers) [Compound 342] were, in that order, 4.8 nM and above 3.75 µM.
For the molecule `CS(=O)(=O)Nc1ccc(NC2CC3(CCN(c4ncnc5sc(CC(F)(F)F)cc45)C3)C2)cc1` (mixture of isomers) [Compound 343], the IC50 at menin is 4.9 nM; in the experiment on MOLM14 (Homo sapiens, MOLM-14, 192 h) it was above 3.75 µM.
For `CS(=O)(=O)Cc1ccc(NC2CC3(CCN(c4ncnc5sc(CC(F)(F)F)cc45)C3)C2)cc1` (mixture of isomers) [Compound 344], the IC50 on menin was 13.4 nM; with MOLM14 (Homo sapiens, MOLM-14, 192 h), above 3.75 µM.
Regarding `O=C1OCCN1c1ccc(NC2CC3(CCN(c4ncnc5sc(CC(F)(F)F)cc45)C3)C2)cc1` (mixture of isomers) [Compound 345], the IC50 on menin is 6.8 nM; in the experiment on MOLM14 (Homo sapiens, MOLM-14, 192 h), 2.33 µM.
The like results for `O=C1NCCN1c1ccc(NC2CC3(CCN(c4ncnc5sc(CC(F)(F)F)cc45)C3)C2)cc1` (mixture of isomers) [Compound 346] were, in that order, 7.3 nM and 2.11 µM.
With `O=C1OCCN1Cc1ccc(NC2CC3(CCN(c4ncnc5sc(CC(F)(F)F)cc45)C3)C2)cc1` (mixture of isomers) [Compound 347], the IC50 on menin came to 9.1 nM; with MOLM14 (Homo sapiens, MOLM-14, 192 h), 3.18 µM.
`NC(=O)Cc1ccc(NC2CC3(CCN(c4ncnc5sc(CC(F)(F)F)cc45)C3)C2)cc1` (mixture of isomers) [Compound 348]: the IC50 was 14.5 nM at menin and above 3.75 µM with MOLM14 (Homo sapiens, MOLM-14, 192 h).
Consider `CS(=O)(=O)N1CCN(CCn2c(=O)oc3ccc(CNC4CC5(CCN(c6ncnc7sc(CC(F)(F)F)cc67)C5)C4)cc32)CC1` (mixture of isomers) [Compound 349], for which the concentration for half-maximal inhibition (IC50) was 19.3 nM at menin and above 3.75 µM with MOLM14 (Homo sapiens, MOLM-14, 192 h).
As for `FC(F)(F)Cc1cc2c(N3CCC4(CC(Nc5ccc(CN6CCOCC6)cc5)C4)C3)ncnc2s1` (mixture of isomers) [Compound 350], the IC50 at menin is 21.1 nM; with MOLM14 (Homo sapiens, MOLM-14, 192 h), 3.55 µM.
Take `N#Cc1ccc(NC2CC3(CCN(c4ncnc5sc(CC(F)(F)F)cc45)C3)C2)nc1` (single isomer, unassigned) [Compound 174]: the IC50 with MOLM14 amounted to 2.94 µM.
As for `N#Cc1cccc(NC2CCC3(CCN(c4ncnc5sc(CC(F)(F)F)cc45)C3)C2)c1` (stereo not shown) [Compound 132], the IC50 at menin was determined as 180 nM.
For the molecule `CC(C)(C#N)c1ccc(NC2CC3(CCN(c4ncnc5sc(CC(F)(F)F)cc45)C3)C2)cc1` (stereo not shown) [Compound 169], the IC50 on menin was determined as 425 nM.
For the molecule `N#CCc1cccc(NC2CC3(CCN(c4ncnc5sc(CC(F)(F)F)cc45)C3)C2)c1` (stereo not shown) [Compound 201], on menin, the IC50 was 175 nM.
In the case of `Cc1nc(N2CCC3(CC(Nc4ccccc4)C3)C2)c2cc(CC(F)(F)F)sc2n1` (stereo not shown) [Compound 264], on menin, the IC50 is 913 nM.
Same read-out and setting: as for `O=c1ccc(NC2CCC3(C2)CN(c2ncnc4sc(CC(F)(F)F)cc24)C3)c[nH]1` (stereo not shown) [Compound 283], the figure is 2160 nM.
Still for that read-out and setting: then `FC(F)(F)Cc1cc2c(N3CC4(CCC(Nc5ccc6cc[nH]c6c5)C4)C3)ncnc2s1` (stereo not shown) [Compound 284], with 423 nM; and `CNc1nc(N2CC3(CCC(Nc4ccc(CC#N)cc4)C3)C2)c2cc(CC(F)(F)F)sc2n1` (stereo not shown) [Compound 400], with 373 nM.
As for `CNc1nc(N2CC3(CCC(Nc4ccc5oc(=O)[nH]c5c4)C3)C2)c2cc(CC(F)(F)F)sc2n1` (stereo not shown) [Compound 401], the IC50 on menin came to 331 nM.
For the molecule `CNc1nc(N2CC3(CCC(Nc4ccc5[nH]c(=O)[nH]c5c4)C3)C2)c2cc(CC(F)(F)F)sc2n1` (stereo not shown) [Compound 402], the IC50 at menin amounted to 906 nM.

The IC50 is the concentration that gives 50% inhibition.
